Source: patent US10174005B2, “Fused pyrimidines as inhibitors of p97 complex” (Cleave Biosciences, Inc., priority 2014, dated 2019)

Test system: Caco-2 cells

CC(C)NCC(O)COc1cccc2ccccc12 (centres unmarked) [Propranolol]
Peff A B, Range (pH 7.4 Caco-2, A to B): 18.50-36.80 × E-6 cm/sec | Peff B A, Range (pH 7.4 Caco-2, B to A): 16.30-31.40 × E-6 cm/sec
